Test results reported in patent US9180136B2, “Identification and treatment of cancer subsets” (The Translational Genomics Research Institute, priority 2010, dated 2015).
Structures can show the parent of a compound that is named as a salt.

What was measured:
SCC-4 cells = test: TUNEL apoptosis staining of SCC-4 cells treated with IP6; assay type: cell-based, human; conditions: SCC-4 cells treated with IP6 vs untreated, FIG. 8
From the text: FIG. 8 depicts increased apoptosis in a squamous cell carcinoma cell line treated with IP6 (right panel B) relative to the same line without treatment (left panel A), and the DNA blue fluorescence was produced by DAPI probe. Apoptotic nuclei red fluorescence was produced through TUNEL assay; IP6 is an inositol metabolite that is dependant upon INPP5A activity for its synthesis (See FIG. 7). Addition of exogenous IP6 inhibits the cell proliferation brought about by INPP5A loss and drives cells towards a differentiated phenotype. […] Increased TUNEL staining (red) is seen in the IP6 treated cells.

[1] = system: normal human keratinocytes; test: TUNEL apoptosis staining of normal human keratinocytes at different confluence treated with IP6; assay type: cell-based; conditions: for apoptosis (TUNEL staining): 2 mM IP6 for 24 hours
Experimental: FIG. 12 depicts the effect of IP6 treatment on confluent normal human keratinocytes. […] The DNA blue fluorescence was produced by DAPI probe. Apoptotic nuclei red fluorescence was produced through TUNEL assay; FIG. 13 depicts the effect of IP6 treatment on 70% confluent keratinocytes. […] The DNA blue fluorescence was produced by DAPI probe. […] Normal human keratinocytes were harvested at various stages of confluency. Cell cultures were assessed by morphological evaluation of the cell and segregated into distinct culture confluence intervals at or near the plateau phase of growth, generally: lower confluence (L), 70-80%; medium confluence (M), 80-90%, and higher confluence (H), >95%. INPP5A mRNA expression at selected culture confluence levels was evaluated by qPCR.

[2] = system: transformed normal human embryonic kidney cell line (HEK-293); test: CellTiter-Glo luminescent cell viability after IP6 treatment; assay type: cell-based; conditions: HEK-293, 0.31-5 mM IP6, 72 hours, FIG. 18
Experimental: (§1) The human head and neck squamous cell carcinoma lines evaluated were: SCC-4, SCC-9 and SCC-15. The colorectal cancer cell line HT-29 and the kidney embryonic line HEK293, purchased from the American Type Culture Collection (ATCC, Manassas, Va.), were used for comparison. Squamous cell lines were maintained in Dulbecco's Modified Eagle Medium: Nutrient Mixture F12 (DMEM/F12), with 10% Fetal bovine serum (FBS), 2 mM GlutaMAX, 25 mM Hepes buffer, 100 U/ml penicillin and 100 μg/ml streptomycin. HEK293 and HT-29 were cultured in DMEM and RPMI-1640 medium respectively, with the supplements mentioned above. All media and cell culture supplements were purchased from Invitrogen Corporation (Carlsbad, Calif.). Sub-confluent, rapidly growing cells were plated at a density of 600 cells/20 μL/well in a clear bottom 384-well plate with opaque walls, suitable for luminescent measurements. The next day, IP6 (Inositol hexakisphosphate, phytic acid, dipotassium salt, Sigma-Aldrich, St Louis, Mo.) solutions in culture medium, corresponding to the following concentrations: 0.3125, 0.625, 1.25, 2.5 and 5 mM, were prepared, and were stored at 4° C. for 4-6 h. […] The plate was incubated at room temperature for 10 minutes, and the luminescence was read on a Perkin Elmer Victor^3 microplate reader. Data from each set of four replicates was averaged and the standard deviation was calculated. […]

[3] = system: colorectal adenocarcinoma (HT-29); test: as above; assay type: cell-based; conditions: HT-29, 0.31-5 mM IP6, 72 hours, FIG. 18
Experimental: as §1

SCC-15 = test: as above; assay type: cell-based, human; conditions: SCC-15, 0.31-5 mM IP6, 72 hours, FIG. 18
Experimental: (§2) The human head and neck squamous cell carcinoma lines evaluated were: SCC-4, SCC-9 and SCC-15. The colorectal cancer cell line HT-29 and the kidney embryonic line HEK293, purchased from the American Type Culture Collection (ATCC, Manassas, Va.), were used for comparison. Squamous cell lines were maintained in Dulbecco's Modified Eagle Medium: Nutrient Mixture F12 (DMEM/F12), with 10% Fetal bovine serum (FBS), 2 mM GlutaMAX, 25 mM Hepes buffer, 100 U/ml penicillin and 100 μg/ml streptomycin. HEK293 and HT-29 were cultured in DMEM and RPMI-1640 medium respectively, with the supplements mentioned above. All media and cell culture supplements were purchased from Invitrogen Corporation (Carlsbad, Calif.). Sub-confluent, rapidly growing cells were plated at a density of 600 cells/20 μL/well in a clear bottom 384-well plate with opaque walls, suitable for luminescent measurements. The next day, IP6 (Inositol hexakisphosphate, phytic acid, dipotassium salt, Sigma-Aldrich, St Louis, Mo.) solutions in culture medium, corresponding to the following concentrations: 0.3125, 0.625, 1.25, 2.5 and 5 mM, were prepared, and were stored at 4° C. for 4-6 h. Shortly before treatment, IP6 solutions were centrifuged to remove any precipitates that IP6 forms with calcium chloride. Four wells were treated for each condition. […] (San Luis Obispo, Calif.), following the manufacturer's instruction. Briefly, the assay buffer and substrate were equilibrated at room temperature, and mixed thoroughly. Without removing medium from wells, the assay reagent was added into each well (1:1, volume:volume of medium per well) and the content was mixed for 2 minutes on an orbital shaker to induce cell lysis. The plate was incubated at room temperature for 10 minutes, and the luminescence was read on a Perkin Elmer Victor^3 microplate reader. Data from each set of four replicates was averaged and the standard deviation was calculated. […]

SCC-4 = test: as above; assay type: cell-based, human; conditions: SCC-4, 0.31-5 mM IP6, 72 hours, FIG. 18
Experimental: as §2

SCC-9 = test: as above; assay type: cell-based, human; conditions: SCC-9, 0.31-5 mM IP6, 72 hours, FIG. 18
Experimental: as §2

SMILES: O=P(O)(O)O[C@H]1[C@H](OP(=O)(O)O)[C@@H](OP(=O)(O)O)[C@H](OP(=O)(O)O)[C@@H](OP(=O)(O)O)[C@H]1OP(=O)(O)O [IP6, Inositol hexakisphosphate, phytic acid, dipotassium salt]
- cell death by apoptosis (TUNEL staining) (SCC-4 cells): significant cell death by apoptosis
- apoptosis (TUNEL staining) ([1]; 70% confluent keratinocytes, FIG. 13): Greater apoptosis relative to background
- apoptosis (TUNEL staining) ([1]; 100% confluent keratinocytes, FIG. 12): reduced apoptosis
- selectivity for cells with reduced INPP5A expression ([1]; normal human keratinocytes at various stages of confluency): selective for cells with reduced INPP5A expression
- proportion of cells present after treatment relative to untreated cells [2]: dose-dependent reduction in number
- proportion of cells present after treatment relative to untreated cells [3]: dose-dependent reduction in number
- proportion of cells present after treatment relative to untreated cells (SCC-15): dose-dependent reduction in number, which is much greater for the SCC cells
- proportion of cells present after treatment relative to untreated cells (SCC-4): dose-dependent reduction in number, which is much greater for the SCC cells
- proportion of cells present after treatment relative to untreated cells (SCC-9): dose-dependent reduction in number, which is much greater for the SCC cells
